Data published in patent publication US20080051387A1, “TETRAHYDROPYRIDO[3,4-D]PYRIMIDINES AND RELATED ANALOGUES” (priority 2006, published 2008).

molecular target: T1, chimeric human H3 receptor (Homo sapiens, UniProt Q9Y5N1); experiment: Chimeric human H3 receptor screening GTP binding assay (inhibition of histamine-stimulated GTP-gamma35S binding, Example 8); format: biochemical; details: 1 h; assay described in Example 8; symbol "!" in column headed Ki; read-out: Ki ("!": percent inhibition of agonist-induced GTP-gammaS binding to H3)
T1 construct: rat Galpha-i2 (Gnai2, rat); made in house; host or cells: Sf9 insect cells (baculovirus); P2 membranes
Procedure, shortened: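 Sf9 membranes co-expressing chimeric human H3 receptor and heterotrimeric G-protein (35 μg protein) incubated 60 min at room temperature with 4 μM compound, 1 μM histamine and 125 pM GTP-gamma35S in pH 7.4 buffer with 10 μM GDP. Filter-bound radioactivity, nonspecific (10 μM GTP-gammaS) subtracted, reported as % inhibition of histamine signal.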

T1 sequence (Q9Y5N1 with tags, fused parts or gaps): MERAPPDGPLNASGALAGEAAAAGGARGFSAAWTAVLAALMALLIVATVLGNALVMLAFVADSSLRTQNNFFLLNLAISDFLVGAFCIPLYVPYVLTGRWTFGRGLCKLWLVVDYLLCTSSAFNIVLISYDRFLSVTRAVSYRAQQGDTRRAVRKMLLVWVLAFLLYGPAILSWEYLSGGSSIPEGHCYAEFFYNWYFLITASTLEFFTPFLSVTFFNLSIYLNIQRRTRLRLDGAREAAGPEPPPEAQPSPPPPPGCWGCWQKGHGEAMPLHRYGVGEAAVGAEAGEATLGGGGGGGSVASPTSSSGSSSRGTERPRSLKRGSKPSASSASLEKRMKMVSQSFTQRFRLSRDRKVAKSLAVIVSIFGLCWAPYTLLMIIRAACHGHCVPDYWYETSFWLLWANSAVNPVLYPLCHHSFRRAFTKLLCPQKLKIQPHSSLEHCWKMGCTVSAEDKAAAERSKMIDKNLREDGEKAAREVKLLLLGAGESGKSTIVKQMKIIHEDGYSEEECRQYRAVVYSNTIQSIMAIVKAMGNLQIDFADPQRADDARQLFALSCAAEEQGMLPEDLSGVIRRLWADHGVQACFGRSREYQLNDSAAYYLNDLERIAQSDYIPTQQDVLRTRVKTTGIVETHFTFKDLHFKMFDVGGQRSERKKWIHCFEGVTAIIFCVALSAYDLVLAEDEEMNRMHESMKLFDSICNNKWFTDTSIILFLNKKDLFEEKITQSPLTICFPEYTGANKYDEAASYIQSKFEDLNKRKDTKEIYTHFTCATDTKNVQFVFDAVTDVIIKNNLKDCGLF

inhibition at 4 µM [%] | SMILES
≥ 90 | O=C(c1ccccc1Cl)N1CCc2cnc(N3CCN(C4CCC4)CC3)nc2CC1 [Compound 436, 7-(2-chlorobenzoyl)-2-(4-cyclobutylpiperazin-1-yl)-6,7,8,9-tetrahydro-5H-pyrimido[4,5-d]azepine]
≥ 90 | O=C(c1cc(Cl)ccc1Cl)N1CCc2cnc(N3CCN(C4CCC4)CC3)nc2CC1 [Compound 441, 2-(4-cyclobutylpiperazin-1-yl)-7-(2,5-dichlorobenzoyl)-6,7,8,9-tetrahydro-5H-pyrimido[4,5-d]azepine]
≥ 90 | O=C(c1ccc(Cl)cc1Cl)N1CCc2cnc(N3CCN(C4CCC4)CC3)nc2CC1 [Compound 442, 2-(4-cyclobutylpiperazin-1-yl)-7-(2,4-dichlorobenzoyl)-6,7,8,9-tetrahydro-5H-pyrimido[4,5-d]azepine]
≥ 90 | O=C(c1cccs1)N1CCc2cnc(N3CCN(C4CCC4)CC3)nc2CC1 [Compound 443, 2-(4-cyclobutylpiperazin-1-yl)-7-(2-thienylcarbonyl)-6,7,8,9-tetrahydro-5H-pyrimido[4,5-d]azepine]
≥ 90 | Cc1ccsc1C(=O)N1CCc2cnc(N3CCN(C4CCC4)CC3)nc2CC1 [Compound 444, 2-(4-cyclobutylpiperazin-1-yl)-7-[(3-methyl-2-thienyl)carbonyl]-6,7,8,9-tetrahydro-5H-pyrimido[4,5-d]azepine]
≥ 90 | Cc1ccc(C(=O)N2CCc3cnc(N4CCN(C5CCC5)CC4)nc3CC2)s1 [Compound 445, 2-(4-cyclobutylpiperazin-1-yl)-7-[(5-methyl-2-thienyl)carbonyl]-6,7,8,9-tetrahydro-5H-pyrimido[4,5-d]azepine]
≥ 90 | O=C(c1sccc1Cl)N1CCc2cnc(N3CCN(C4CCC4)CC3)nc2CC1 [Compound 446, 7-[(3-chloro-2-thienyl)carbonyl]-2-(4-cyclobutylpiperazin-1-yl)-6,7,8,9-tetrahydro-5H-pyrimido[4,5-d]azepine]
≥ 90 | CCOc1ccsc1C(=O)N1CCc2cnc(N3CCN(C4CCC4)CC3)nc2CC1 [Compound 447, 2-(4-cyclobutylpiperazin-1-yl)-7-[(3-ethoxy-2-thienyl)carbonyl]-6,7,8,9-tetrahydro-5H-pyrimido[4,5-d]azepine]
≥ 90 | CSc1ccc(C(=O)N2CCc3cnc(N4CCN(C5CCC5)CC4)nc3CC2)s1 [Compound 448, 2-(4-cyclobutylpiperazin-1-yl)-7-{[5-(methylthio)-2-thienyl]carbonyl}-6,7,8,9-tetrahydro-5H-pyrimido[4,5-d]azepine]
≥ 90 | O=C(c1ccc(Br)s1)N1CCc2cnc(N3CCN(C4CCC4)CC3)nc2CC1 [Compound 449, 7-[(5-bromo-2-thienyl)carbonyl]-2-(4-cyclobutylpiperazin-1-yl)-6,7,8,9-tetrahydro-5H-pyrimido[4,5-d]azepine]
≥ 90 | O=C(c1sccc1Br)N1CCc2cnc(N3CCN(C4CCC4)CC3)nc2CC1 [Compound 450, 7-[(3-bromo-2-thienyl)carbonyl]-2-(4-cyclobutylpiperazin-1-yl)-6,7,8,9-tetrahydro-5H-pyrimido[4,5-d]azepine]
≥ 90 | CCc1ccc(C(=O)N2CCc3cnc(N4CCN(C5CCC5)CC4)nc3CC2)s1 [Compound 451, 2-(4-cyclobutylpiperazin-1-yl)-7-[(5-ethyl-2-thienyl)carbonyl]-6,7,8,9-tetrahydro-5H-pyrimido[4,5-d]azepine]
≥ 90 | O=C(c1ccc(Cl)s1)N1CCc2cnc(N3CCN(C4CCC4)CC3)nc2CC1 [Compound 453, 7-[(5-chloro-2-thienyl)carbonyl]-2-(4-cyclobutylpiperazin-1-yl)-6,7,8,9-tetrahydro-5H-pyrimido[4,5-d]azepine]
≥ 90 | COc1cscc1C(=O)N1CCc2cnc(N3CCN(C4CCC4)CC3)nc2CC1 [Compound 456, 2-(4-cyclobutylpiperazin-1-yl)-7-[(4-methoxy-3-thienyl)carbonyl]-6,7,8,9-tetrahydro-5H-pyrimido[4,5-d]azepine]
≥ 90 | O=C(c1ccsc1)N1CCc2cnc(N3CCN(C4CCC4)CC3)nc2CC1 [Compound 464, 2-(4-cyclobutylpiperazin-1-yl)-7-(3-thienylcarbonyl)-6,7,8,9-tetrahydro-5H-pyrimido[4,5-d]azepine]

Continued, molecule first:

SMILES | inhibition at 4 µM [%]
O=C(c1c(Cl)cccc1Cl)N1CCc2cnc(N3CCN(C4CCC4)CC3)nc2CC1 [Compound 435, 2-(4-cyclobutylpiperazin-1-yl)-7-(2,6-dichlorobenzoyl)-6,7,8,9-tetrahydro-5H-pyrimido[4,5-d]azepine] | ≥ 90
O=C(c1cccc(C(F)(F)F)c1Cl)N1CCc2cnc(N3CCN(C4CCC4)CC3)nc2CC1 [Compound 437, 7-[2-chloro-3-(trifluoromethyl)benzoyl]-2-(4-cyclobutylpiperazin-1-yl)-6,7,8,9-tetrahydro-5H-pyrimido[4,5-d]azepine] | ≥ 90
O=C(c1cc(C(F)(F)F)ccc1Cl)N1CCc2cnc(N3CCN(C4CCC4)CC3)nc2CC1 [Compound 438, 7-[2-chloro-5-(trifluoromethyl)benzoyl]-2-(4-cyclobutylpiperazin-1-yl)-6,7,8,9-tetrahydro-5H-pyrimido[4,5-d]azepine] | ≥ 90
O=C(c1ccccc1C(F)(F)F)N1CCc2cnc(N3CCN(C4CCC4)CC3)nc2CC1 [Compound 439, 2-(4-cyclobutylpiperazin-1-yl)-7-[2-(trifluoromethyl)benzoyl]-6,7,8,9-tetrahydro-5H-pyrimido[4,5-d]azepine] | ≥ 90
O=C(c1cccc(Cl)c1Cl)N1CCc2cnc(N3CCN(C4CCC4)CC3)nc2CC1 [Compound 440, 2-(4-cyclobutylpiperazin-1-yl)-7-(2,3-dichlorobenzoyl)-6,7,8,9-tetrahydro-5H-pyrimido[4,5-d]azepine] | ≥ 90
CCCc1ccc(C(=O)N2CCc3cnc(N4CCN(C5CCC5)CC4)nc3CC2)s1 [Compound 452, 2-(4-cyclobutylpiperazin-1-yl)-7-[(5-propyl-2-thienyl)carbonyl]-6,7,8,9-tetrahydro-5H-pyrimido[4,5-d]azepine] | ≥ 90
CCCCn1c(C(=O)N2CCc3cnc(N4CCN(C5CCC5)CC4)nc3CC2)cc2ccccc21 [Compound 454, 7-[(1-butyl-1H-indol-2-yl)carbonyl]-2-(4-cyclobutylpiperazin-1-yl)-6,7,8,9-tetrahydro-5H-pyrimido[4,5-d]azepine] | ≥ 90
O=C(c1cc2ccccc2s1)N1CCc2cnc(N3CCN(C4CCC4)CC3)nc2CC1 [Compound 455, 7-(1-benzothien-2-ylcarbonyl)-2-(4-cyclobutylpiperazin-1-yl)-6,7,8,9-tetrahydro-5H-pyrimido[4,5-d]azepine] | ≥ 90
O=C(c1sc2ccccc2c1Cl)N1CCc2cnc(N3CCN(C4CCC4)CC3)nc2CC1 [Compound 457, 7-[(3-chloro-1-benzothien-2-yl)carbonyl]-2-(4-cyclobutylpiperazin-1-yl)-6,7,8,9-tetrahydro-5H-pyrimido[4,5-d]azepine] | ≥ 90
CSc1sc(C(=O)N2CCc3cnc(N4CCN(C5CCC5)CC4)nc3CC2)c2c1C=CCC2 [Compound 458, 2-(4-cyclobutylpiperazin-1-yl)-7-{[3-(methylthio)-6,7-dihydro-2-benzothien-1-yl]carbonyl}-6,7,8,9-tetrahydro-5H-pyrimido[4,5-d]azepine] | ≥ 90
Cc1cc(C(=O)N2CCc3cnc(N4CCN(C5CCC5)CC4)nc3CC2)c(C)n1C [Compound 459, 2-(4-cyclobutylpiperazin-1-yl)-7-[(1,2,5-trimethyl-1H-pyrrol-3-yl)carbonyl]-6,7,8,9-tetrahydro-5H-pyrimido[4,5-d]azepine] | ≥ 90
Cn1nc(C(F)(F)F)cc1-c1ccc(C(=O)N2CCc3cnc(N4CCN(C5CCC5)CC4)nc3CC2)s1 [Compound 460, 2-(4-cyclobutylpiperazin-1-yl)-7-({5-[1-methyl-3-(trifluoromethyl)-1H-pyrazol-5-yl]-2-thienyl}carbonyl)-6,7,8,9-tetrahydro-5H-pyrimido[4,5-d]azepine] | ≥ 90
Cn1c(C(=O)N2CCc3cnc(N4CCN(C5CCC5)CC4)nc3CC2)cc2ccccc21 [Compound 461, 2-(4-cyclobutylpiperazin-1-yl)-7-[(1-methyl-1H-indol-2-yl)carbonyl]-6,7,8,9-tetrahydro-5H-pyrimido[4,5-d]azepine] | ≥ 90
CCn1c(C(=O)N2CCc3cnc(N4CCN(C5CCC5)CC4)nc3CC2)cc2ccccc21 [Compound 462, 2-(4-cyclobutylpiperazin-1-yl)-7-[(1-ethyl-1H-indol-2-yl)carbonyl]-6,7,8,9-tetrahydro-5H-pyrimido[4,5-d]azepine] | ≥ 90
CCCn1c(C(=O)N2CCc3cnc(N4CCN(C5CCC5)CC4)nc3CC2)cc2ccccc21 [Compound 463, 2-(4-cyclobutylpiperazin-1-yl)-7-[(1-propyl-1H-indol-2-yl)carbonyl]-6,7,8,9-tetrahydro-5H-pyrimido[4,5-d]azepine] | ≥ 90
Cc1cc(C(=O)N2CCc3cnc(N4CCN(C5CCC5)CC4)nc3CC2)c(C)o1 [Compound 465, 2-(4-cyclobutylpiperazin-1-yl)-7-(2,5-dimethyl-3-furoyl)-6,7,8,9-tetrahydro-5H-pyrimido[4,5-d]azepine] | ≥ 90
Cc1oc(C(C)(C)C)cc1C(=O)N1CCc2cnc(N3CCN(C4CCC4)CC3)nc2CC1 [Compound 466, 7-(5-tert-butyl-2-methyl-3-furoyl)-2-(4-cyclobutylpiperazin-1-yl)-6,7,8,9-tetrahydro-5H-pyrimido[4,5-d]azepine] | ≥ 90
Cc1cc(C(=O)N2CCc3cnc(N4CCN(C5CCC5)CC4)nc3CC2)c(C(F)(F)F)o1 [Compound 467, 2-(4-cyclobutylpiperazin-1-yl)-7-[5-methyl-2-(trifluoromethyl)-3-furoyl]-6,7,8,9-tetrahydro-5H-pyrimido[4,5-d]azepine] | ≥ 90
